Source: US10563263B2, “Genetic polymorphisms associated with statin response and cardiovascular diseases, methods of detection and uses thereof” (CELERA CORPORATION, priority 2010, dated 2020)

Tested on: revascularization, unstable angina requiring hospitalization, MI, all causes of death, or stroke
Experiment: PROVE IT-TIMI 22: SNP by treatment interaction (high-dose atorvastatin vs standard-dose pravastatin), logistic regression (synergy index), primary composite endpoint
Type: in vivo, human
Conditions: atorvastatin vs pravastatin; for OR (SNP by treatment interaction, logistic regression): PROVE-IT; for OR: PROVEIT

CC(C)c1c(C(=O)Nc2ccccc2)c(-c2ccccc2)c(-c2ccc(F)cc2)n1CC[C@@H](O)C[C@@H](O)CC(=O)O [Atorvastatin, atorvastatin]
OR (SNP by treatment interaction, logistic regression) (rs992695, Imputed, allele C (A1), model DOM, NMISS 442): 1.216
OR (SNP by treatment interaction, logistic regression) (rs9866421, Genotyped, allele C (A1), model REC, NMISS 443): 0.5895
OR (SNP by treatment interaction, logistic regression) (rs9881685, Imputed, allele A (A1), model ADD, NMISS 440): 1.041
OR (SNP by treatment interaction, logistic regression) (rs9881685, Imputed, allele A (A1), model DOM, NMISS 440): 1.041
OR (SNP by treatment interaction, logistic regression) (rs9936999, Imputed, allele G (A1), model DOM, NMISS 266): 0.7758
OR (marker rs2574, cohort, model rec, End-point CVD): 1.62
OR (marker rs7508, caseonly, model dom, End-point CHD): 1.65
OR (marker rs198464, cohort, model rec, End-point CHD): 1.44
OR (marker rs198476, caseonly, model rec, End-point CHD): 1.85
OR (marker rs264122, cohort, model dom, End-point CHD): 0.72
OR (marker rs271046, caseonly, model rec, End-point CVD): 0.68
OR (marker rs494111, caseonly, model rec, End-point CHD): 0.44
OR (marker rs498657, caseonly, model add, End-point CHD): 1.57
OR (marker rs619825, caseonly, model rec, End-point CHD): 0.40
OR (marker rs646749, caseonly, model rec, End-point CHD): 0.40
OR (marker rs694780, caseonly, model rec, End-point CHD): 0.40
OR (marker rs892162, caseonly, model rec, End-point CHD): 0.64
OR (marker rs974950, cohort, model dom, End-point CVD): 0.64
OR (marker rs996022, caseonly, model rec, End-point CHD): 0.41
OR (marker rs1003322, caseonly, model dom, End-point CHD): 1.41
OR (marker rs1009748, cohort, model add, End-point CVD): 1.43
OR (marker rs1136046, caseonly, model add, End-point CVD): 1.48
OR (marker rs1190706, cohort, model dom, End-point CVD): 0.76
OR (marker rs1266489, cohort, model dom, End-point CVD): 0.67
OR (marker rs1336400, cohort, model dom, End-point CHD): 1.46
OR (marker rs1344081, caseonly, model dom, End-point CVD): 1.31
OR (marker rs1450092, caseonly, model add, End-point CHD): 0.81
OR (marker rs1524962, caseonly, model add, End-point CHD): 0.80
OR (marker rs1566221, cohort, model add, End-point CHD): 0.68
OR (marker rs1727746, cohort, model dom, End-point CVD): 1.30
OR (marker rs1798093, cohort, model rec, End-point CHD): 2.00
OR (marker rs1942876, caseonly, model rec, End-point CHD): 0.41
OR (marker rs2011318, caseonly, model add, End-point CHD): 0.63
OR (marker rs2060022, caseonly, model rec, End-point CVD): 0.72
OR (marker rs2108425, cohort, model dom, End-point CHD): 0.77
OR (marker rs2110564, cohort, model dom, End-point CVD): 0.60
OR (marker rs2113334, caseonly, model rec, End-point CVD): 0.29
OR (marker rs2327412, cohort, model add, End-point CVD): 1.38
OR (marker rs2505039, cohort, model add, End-point CHD): 0.84
OR (marker rs2588350, cohort, model add, End-point CVD): 0.82
OR (marker rs2648694, cohort, model rec, End-point CVD): 1.72
OR (marker rs2655222, caseonly, model rec, End-point CHD): 0.23
OR (marker rs2657940, caseonly, model add, End-point CHD): 1.20
OR (marker rs2993156, caseonly, model dom, End-point CVD): 0.75
OR (marker rs3763978, cohort, model add, End-point CVD): 0.84
OR (marker rs4038018, caseonly, model dom, End-point CHD): 0.76
OR (marker rs4240808, caseonly, model rec, End-point CVD): 0.56
OR (marker rs4242281, caseonly, model rec, End-point CVD): 2.08
OR (marker rs4420312, caseonly, model dom, End-point CHD): 0.59
OR (marker rs4472926, caseonly, model dom, End-point CHD): 0.53
OR (marker rs4660234, cohort, model dom, End-point CHD): 1.45
OR (marker rs4787415, caseonly, model rec, End-point CHD): 0.62
OR (marker rs4807536, caseonly, model dom, End-point CVD): 1.53
OR (marker rs4836745, caseonly, model dom, End-point CVD): 0.65
OR (marker rs4870109, caseonly, model rec, End-point CVD): 1.97
OR (marker rs6427807, cohort, model dom, End-point CVD): 0.66
OR (marker rs6539231, caseonly, model dom, End-point CVD): 0.68
OR (marker rs6563805, caseonly, model add, End-point CHD): 0.53
OR (marker rs6585412, cohort, model dom, End-point CVD): 1.39
OR (marker rs6685920, cohort, model dom, End-point CVD): 1.45
OR (marker rs6998016, caseonly, model rec, End-point CHD): 6.19
OR (marker rs7018577, caseonly, model dom, End-point CHD): 1.44
OR (marker rs7070244, caseonly, model add, End-point CVD): 1.30
OR (marker rs7078016, cohort, model dom, End-point CVD): 1.41
OR (marker rs7222186, caseonly, model dom, End-point CHD): 0.50
OR (marker rs7276749, cohort, model dom, End-point CVD): 0.45
OR (marker rs7332076, caseonly, model rec, End-point CVD): 2.40
OR (marker rs7338174, caseonly, model dom, End-point CHD): 2.50
OR (marker rs7449527, caseonly, model dom, End-point CHD): 1.53
OR (marker rs7710039, caseonly, model dom, End-point CVD): 0.70
OR (marker rs7839562, caseonly, model dom, End-point CHD): 1.54
OR (marker rs7916629, caseonly, model rec, End-point CVD): 2.11
OR (marker rs7918692, caseonly, model dom, End-point CVD): 1.48
OR (marker rs7959965, caseonly, model add, End-point CVD): 0.74
OR (marker rs8129810, cohort, model dom, End-point CVD): 0.45
OR (marker rs9478241, caseonly, model rec, End-point CVD): 2.08
OR (marker rs9914580, caseonly, model dom, End-point CHD): 0.51
OR (marker rs10012485, cohort, model dom, End-point CVD): 0.54
OR (marker rs10497883, caseonly, model add, End-point CHD): 0.68
OR (marker rs10518335, caseonly, model dom, End-point CVD): 0.55
OR (marker rs10774580, caseonly, model dom, End-point CHD): 0.63
OR (marker rs10945874, cohort, model add, End-point CVD): 1.72
OR (marker rs11138314, cohort, model add, End-point CHD): 0.64
OR (marker rs11585647, caseonly, model dom, End-point CVD): 0.49
OR (marker rs11721179, caseonly, model dom, End-point CVD): 0.64
OR (marker rs11734256, cohort, model rec, End-point CVD): 0.57
OR (marker rs12048902, caseonly, model add, End-point CVD): 0.72
OR (marker rs12341095, cohort, model rec, End-point CHD): 1.63
OR (marker rs12646525, cohort, model dom, End-point CVD): 0.59
OR (marker rs12679254, caseonly, model dom, End-point CVD): 0.79
OR (marker rs12817873, cohort, model add, End-point CVD): 0.85
OR (marker rs13107334, cohort, model dom, End-point CVD): 0.53
OR (marker rs13126170, caseonly, model dom, End-point CVD): 0.53
